T/C data for 18 compounds are collected here from PubChem BioAssay AID248 (DTP/NCI, 2004).

“And” between values parts separate entries of the source, which are not always exact repeats. Equal values may be shown once. Inconclusive results and toxic doses are left out.

For the assay, the system named is L1210 leukemia ip in BDF1 mice, survival T/C. Briefly: NCI In Vivo Anticancer Drug Screen. Data for tumor model L1210 Leukemia (intraperitoneal) in B6D2F1 (BDF1) mice. As to conditions: endpoint: mean survival time, higher = longer survival. The method, boiled down: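 Ratio derived from survival: compound-dosed mice over vehicle-dosed mice, all bearing a transplantable tumor.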

Setting [1] is: dose: 100.0 mg/kg/injection, schedule: Q04DX002 (ip), vehicle: saline with Tween-80.
Where [2] appears, read: dose: 200.0 mg/kg/injection, schedule: Q04DX002 (ip), vehicle: saline with Tween-80.
[3] abbreviates: dose: 400.0 mg/kg/injection, schedule: Q04DX002 (ip), vehicle: saline with Tween-80.
Setting [4] is: dose: 100.0 mg/kg/injection, schedule: Q04DX003 (ip), vehicle: Klucel (hydroxypropylcellulose) (HPC).
[5] abbreviates: dose: 200.0 mg/kg/injection, schedule: Q04DX003 (ip), vehicle: Klucel (hydroxypropylcellulose) (HPC).
Setting [6] is: dose: 400.0 mg/kg/injection, schedule: Q04DX003 (ip), vehicle: Klucel (hydroxypropylcellulose) (HPC).
Setting [7] is: dose: 100.0 mg/kg/injection, schedule: Q01DX001 (ip), vehicle: carboxymethylcellulose (CMC).
Setting [8] is: dose: 200.0 mg/kg/injection, schedule: Q01DX001 (ip), vehicle: carboxymethylcellulose (CMC).
[9] abbreviates: dose: 400.0 mg/kg/injection, schedule: Q01DX001 (ip), vehicle: carboxymethylcellulose (CMC).
Where [10] appears, read: dose: 100.0 mg/kg/injection, schedule: Q04DX002 (ip), vehicle: Klucel (hydroxypropylcellulose) (HPC).
Setting [11] is: dose: 200.0 mg/kg/injection, schedule: Q04DX002 (ip), vehicle: Klucel (hydroxypropylcellulose) (HPC).
The mark [12] stands for this setting: dose: 400.0 mg/kg/injection, schedule: Q04DX002 (ip), vehicle: Klucel (hydroxypropylcellulose) (HPC).
The mark [13] stands for this setting: dose: 100.0 mg/kg/injection, schedule: Q04DX003 (ip), vehicle: saline with Tween-80.
Where [14] appears, read: dose: 200.0 mg/kg/injection, schedule: Q04DX003 (ip), vehicle: saline with Tween-80.
[15] abbreviates: dose: 400.0 mg/kg/injection, schedule: Q04DX003 (ip), vehicle: saline with Tween-80.
Setting [16] is: dose: 100.0 mg/kg/injection, schedule: Q04DX003 (ip), vehicle: saline.
[17] abbreviates: dose: 200.0 mg/kg/injection, schedule: Q04DX003 (ip), vehicle: saline.
The mark [18] stands for this setting: dose: 400.0 mg/kg/injection, schedule: Q04DX003 (ip), vehicle: saline.

Take `COCCN=Cc1ccc(N(C)C)cc1`: the T/C by setting is: under setting [1], 103 % of control; under setting [2], 100 % of control; under setting [3], 100 % of control.

For `CC(C)N(C=O)c1ccc(C(=O)O)cc1`, the T/C runs as follows: (dose: 100.0 mg/kg/injection, schedule: Q01DX001 (ip), vehicle: Klucel (hydroxypropylcellulose) (HPC)) 93 % of control; under setting [4], 108 % of control; (dose: 200.0 mg/kg/injection, schedule: Q01DX001 (ip), vehicle: Klucel (hydroxypropylcellulose) (HPC)) 93 % of control; under setting [5], 97 % of control; (dose: 400.0 mg/kg/injection, schedule: Q01DX001 (ip), vehicle: Klucel (hydroxypropylcellulose) (HPC)) 86 % of control; under setting [6], 89 % of control.

Regarding `NC(=O)c1ccccc1NC(=O)Nc1ccc(F)cc1`, the T/C reads like this: under setting [7], 104 % of control; (dose: 100.0 mg/kg/injection, schedule: Q01DX009 (ip), vehicle: carboxymethylcellulose (CMC)) 102 % of control and 105 % of control; (dose: 100.0 mg/kg/injection, schedule: Q04DX002 (ip), vehicle: carboxymethylcellulose (CMC)) 100 % of control and 101 % of control; (dose: 100.0 mg/kg/injection, schedule: Q04DX003 (ip), vehicle: carboxymethylcellulose (CMC)) 95 % of control; under setting [8], 101 % of control; (dose: 200.0 mg/kg/injection, schedule: Q01DX009 (ip), vehicle: carboxymethylcellulose (CMC)) 98 % of control and 105 % of control. In addition, the T/C (dose: 200.0 mg/kg/injection, schedule: Q04DX002 (ip), vehicle: carboxymethylcellulose (CMC)) was 101 % of control and 107 % of control; the T/C (dose: 200.0 mg/kg/injection, schedule: Q04DX003 (ip), vehicle: carboxymethylcellulose (CMC)) is 102 % of control; the T/C under setting [9] was 93 % of control; the T/C (dose: 400.0 mg/kg/injection, schedule: Q01DX009 (ip), vehicle: carboxymethylcellulose (CMC)) is 94 % of control and 102 % of control; the T/C (dose: 400.0 mg/kg/injection, schedule: Q04DX002 (ip), vehicle: carboxymethylcellulose (CMC)) is 93 % of control and 96 % of control; the T/C (dose: 400.0 mg/kg/injection, schedule: Q04DX003 (ip), vehicle: carboxymethylcellulose (CMC)) was 91 % of control.

For `Nc1cc(Br)cc2c1-c1ccc(Br)cc1C2`, the T/C runs as follows: (dose: 50.0 mg/kg/injection, schedule: Q01DX001 (ip), vehicle: carboxymethylcellulose (CMC)) 107 % of control; under setting [7], 104 % of control; under setting [8], 96 % of control; under setting [9], 102 % of control.

Take `COc1ccc(C(O)c2cc3ccccc3n2S(=O)(=O)c2ccccc2)cc1` (stereo not given): the T/C was 95 % of control under setting [10], 106 % of control under setting [11] and 98 % of control under setting [12].

Consider `OCCOc1c(Cl)cc(Cl)cc1Cl`, for which the T/C was 100 % of control (dose: 50.0 mg/kg/injection, schedule: Q01DX009 (ip), vehicle: saline with Tween-80); 94 % of control and 100 % of control (dose: 100.0 mg/kg/injection, schedule: Q01DX009 (ip), vehicle: saline with Tween-80); 93 % of control under setting [13]; 100 % of control (dose: 200.0 mg/kg/injection, schedule: Q01DX009 (ip), vehicle: saline with Tween-80); 90 % of control under setting [14]; 93 % of control (dose: 400.0 mg/kg/injection, schedule: Q01DX009 (ip), vehicle: saline with Tween-80). Under setting [15], the T/C is 111 % of control.

`NNC(=O)c1cnccn1`: the T/C is, setting by setting: (dose: 16.0 mg/kg/injection, schedule: Q01DX015 (ip), vehicle: water) 102 % of control; (dose: 32.0 mg/kg/injection, schedule: Q01DX015 (ip), vehicle: water) 115 % of control; (dose: 64.0 mg/kg/injection, schedule: Q01DX015 (ip), vehicle: water) 109 % of control; (dose: 80.0 mg/kg/injection, schedule: Q01DX015 (ip), vehicle: water) 105 % of control; (dose: 100.0 mg/kg/injection, schedule: Q01DX001 (ip), vehicle: water) 96 % of control; (dose: 120.0 mg/kg/injection, schedule: Q01DX015 (ip), vehicle: water) 113 % of control.

For `S=P(NCCCCCCNP(=S)(N1CC1)N1CC1)(N1CC1)N1CC1`, the T/C reads like this: under setting [7], 104 % of control; under setting [8], 112 % of control; under setting [9], 119 % of control.

Turning to `CCCCCCCCCCCC1CCCC2CCCCC12` (stereo not given), the T/C by setting is: under setting [1], 91 % of control; under setting [2], 91 % of control; under setting [3], 100 % of control.

As for `Cc1ccc2ccccc2n1`, the T/C runs as follows: under setting [16], 91 % of control; under setting [17], 93 % of control; under setting [18], 98 % of control.

In the case of `CC(C)CCCC(C)C1CCC2C3CC=C4CC(OCCCl)CCC4(C)C3CCC12C` (stereo not given), the T/C runs as follows: under setting [13], 96 % of control; under setting [14], 96 % of control; under setting [15], 93 % of control.

Turning to `Cc1ccc([N+](=O)[O-])cc1NC(=O)N(Cc1ccccc1)Cc1ccccc1`, the T/C under setting [10] was 95 % of control, the T/C under setting [11] is 100 % of control and the T/C under setting [12] is 106 % of control.

`O=C(Nc1ccc(C(=O)O)cc1)Oc1ccc(N(CCCl)CCCl)cc1`: the T/C reads like this: (dose: 6.0 mg/kg/injection, schedule: Q01DX009 (ip), vehicle: other) 114 % of control; (dose: 6.0 mg/kg/injection, schedule: Q01DX009 (ip), vehicle: saline) 106 % of control; (dose: 12.0 mg/kg/injection, schedule: Q01DX009 (ip), vehicle: other) 122 % of control; (dose: 12.0 mg/kg/injection, schedule: Q01DX009 (ip), vehicle: saline) 117 % of control; (dose: 37.5 mg/kg/injection, schedule: Q01DX001 (ip), vehicle: other) 114 % of control; (dose: 48.0 mg/kg/injection, schedule: Q01DX009 (ip), vehicle: other) 160 % of control. For the same compound, the T/C is, setting by setting: (dose: 75.0 mg/kg/injection, schedule: Q01DX001 (ip), vehicle: carboxymethylcellulose (CMC)) 124 % of control; (dose: 75.0 mg/kg/injection, schedule: Q01DX001 (ip), vehicle: other) 121 % of control; (dose: 96.0 mg/kg/injection, schedule: Q01DX009 (ip), vehicle: other) 101 % of control; (dose: 96.0 mg/kg/injection, schedule: Q01DX009 (ip), vehicle: saline) 91 % of control; (dose: 300.0 mg/kg/injection, schedule: Q01DX001 (ip), vehicle: other) 117 % of control.

With `COc1cccc(NC(=O)Oc2ccc(Cl)cc2Cl)c1`, the T/C by setting is: under setting [10], 88 % of control; under setting [11], 88 % of control.

`O=C(Nc1ccccc1)OCCc1c2ccccc2[n+]([O-])c2ccccc12`: the T/C reads like this: under setting [13], 91 % of control; under setting [14], 91 % of control; under setting [15], 102 % of control.

On to `COC1OCC(O)C(O)C1O` (stereo not given), for which the T/C (dose: 100.0 mg/kg/injection, schedule: Q01DX001 (ip), vehicle: saline) is 92 % of control; the T/C under setting [16] was 98 % of control; the T/C (dose: 200.0 mg/kg/injection, schedule: Q01DX001 (ip), vehicle: saline) is 95 % of control; the T/C under setting [17] is 106 % of control; the T/C (dose: 400.0 mg/kg/injection, schedule: Q01DX001 (ip), vehicle: saline) was 95 % of control; the T/C under setting [18] was 101 % of control.

Take `C#CCn1c(=O)c2c(ncn2C)n(C)c1=O`: the T/C (dose: 6.25 mg/kg/injection, schedule: Q04DX003 (ip), vehicle: saline) was 100 % of control.

As to `O=C(O)/C=C/c1cccc(O)c1`, the T/C is, setting by setting: (dose: 100.0 mg/kg/injection, schedule: Q01DX009 (ip), vehicle: Klucel (hydroxypropylcellulose) (HPC)) 98 % of control; under setting [4], 92 % of control; (dose: 200.0 mg/kg/injection, schedule: Q01DX009 (ip), vehicle: Klucel (hydroxypropylcellulose) (HPC)) 102 % of control; under setting [5], 97 % of control; (dose: 400.0 mg/kg/injection, schedule: Q01DX009 (ip), vehicle: Klucel (hydroxypropylcellulose) (HPC)) 97 % of control; under setting [6], 98 % of control.
